# Where two headings read alike, the source gives them in different places.
# Legend:
# Format in all cases: in vivo
# [1] = system: giant foxtail (Setaria faberii); experiment: Test B pre-/postemergence plant response
# Method in brief: (§1)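 Ratings reflect visual injury versus untreated controls, from 0 for no effect to 100 for complete control, assessed roughly 10 days after treatment. Formulation: non-phytotoxic solvent mix with surfactant; pre- and postemergence sprays on plants grown in loam soil and sand.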
# kochia (Kochia scoparia) = experiment: Test B pre-/postemergence plant response
# Method in brief: as §1
# [2] = system: Italian ryegrass (Lolium multiflorum); experiment: Test B pre-/postemergence plant response
# Method in brief: as §1
# corn (Zea mays) = experiment: Test B pre-/postemergence plant response
# Method in brief: as §1
# [3] = system: ragweed (common ragweed, Ambrosia elatior); experiment: Test B pre-/postemergence plant response
# Method in brief: as §1
# [4] = system: barnyardgrass (Echinochloa crus-galli); experiment: Test B pre-/postemergence plant response
# Method in brief: as §1
# [5] = system: wheat (Triticum aestivum); experiment: Test B pre-/postemergence plant response
# Method in brief: as §1
# [6] = system: pigweed (Amaranthus retroflexus); experiment: Test B pre-/postemergence plant response
# Method in brief: as §1
# [7] = system: galium (catchweed bedstraw, Galium aparine); experiment: Test B postemergence plant response
# Method in brief: (§2)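 Seedlings in a loam soil and sand mix received a postemergence application of the formulated chemicals at the one- to two-leaf stage (2–10 cm tall). They were kept in a greenhouse for roughly 10 days, then scored for injury relative to untreated plants, 0 meaning no effect and 100 complete control.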
# [8] = system: blackgrass (Alopecurus myosuroides); experiment: Test B postemergence plant response
# Method in brief: as §2
# rice (Oryza sativa) = experiment: Test C flooded paddy test plant response; conditions: Flood, 250 g ai/ha, scale of 0 to 100 where 0 is no effect and 100 is complete control, 13 to 15 days
# Method in brief: (§3)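 Greenhouse paddy assay, 13–15 days. Treatment into 3 cm floodwater over 2-leaf plants; visual 0–100 rating against controls.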
# [9] = system: ducksalad (Heteranthera limosa); experiment: Test C flooded paddy test plant response; conditions: Flood, 250 g ai/ha, scale of 0 to 100 where 0 is no effect and 100 is complete control, 13 to 15 days
# Method in brief: as §3
# [10] = system: barnyardgrass (Echinochloa crus-galli); experiment: Test C flooded paddy test plant response; conditions: Flood, 250 g ai/ha, scale of 0 to 100 where 0 is no effect and 100 is complete control, 13 to 15 days
# Method in brief: as §3
# [11] = system: small-flower umbrella sedge (Cyperus difformis); experiment: Test C flooded paddy test plant response; conditions: Flood, 250 g ai/ha, scale of 0 to 100 where 0 is no effect and 100 is complete control, 13 to 15 days
# Method in brief: as §3
# [12] = Preemergence, 125 g ai/ha, 0 to 100 scale (0 no effect, 100 complete control)
# [13] = 125 g ai/ha, postemergence, 0 to 100 scale, 0 no effect, 100 complete control
# [14] = Postemergence, 500 g ai/ha, 0 to 100 scale (0 no effect, 100 complete control)
# [15] = Preemergence, 500 g ai/ha, 0 to 100 scale where 0 is no effect and 100 is complete control
# [16] = 31 g ai/ha, Preemergence, 0 to 100 scale where 0 is no effect and 100 is complete control
# [17] = Postemergence, 31 g ai/ha, 0 to 100 scale (0 no effect, 100 complete control)
compound,measurement,setting,value
"FC(F)(F)c1ccc(-c2c(Cl)cccc2Oc2ncc(Cl)cn2)nc1 [Compound 160, 5-chloro-2-[2-[5-(trifluoromethyl)-2-pyridinyl]-3-chlorophenoxy]pyrimidine]","Foxtail, Giant plant response rating",[1]; [12],50
same,pest or weed control at 125 g/ha,"[1]; Setaria faberi, post-emergence, 240 h, 125 g ai/ha, postemergence, 0 to 100 scale, 0 no effect, 100 complete control, read-out: Plant response rating, Foxtail, Giant",30%
same,pest or weed control at 500 g/ha,"[1]; Setaria faberi, post-emergence, 240 h, Postemergence, 500 g ai/ha, 0 to 100 scale (0 no effect, 100 complete control), read-out: Plant response rating, Foxtail, Giant",100%
same,pest or weed control at 500 g/ha,"[1]; Setaria faberi, pre-emergence, 240 h, Preemergence, 500 g ai/ha, 0 to 100 scale where 0 is no effect and 100 is complete control, read-out: Plant response rating, Foxtail, Giant",100%
same,"Plant response rating, Kochia",kochia (Kochia scoparia); [13],40
same,"Plant response rating, Kochia",kochia (Kochia scoparia); [14],90
same,Kochia plant response rating,kochia (Kochia scoparia); [12],30
same,"Plant response rating, Kochia",kochia (Kochia scoparia); [15],90
same,"Plant response rating, Ryegrass, Italian",[2]; [13],0
same,"Plant response rating, Ryegrass, Italian",[2]; [14],90
same,"Ryegrass, Italian plant response rating",[2]; [12],0
same,"Plant response rating, Ryegrass, Italian",[2]; [15],0
same,"Corn plant response rating (crop injury, 0 = no effect, 100 = complete kill) at 125 g/ha","corn (Zea mays); Zea mays, post-emergence, 240 h, 125 g ai/ha, postemergence, 0 to 100 scale, 0 no effect, 100 complete control",30%
same,"Corn plant response rating (crop injury, 0 = no effect, 100 = complete kill) at 500 g/ha","corn (Zea mays); Zea mays, post-emergence, 240 h, Postemergence, 500 g ai/ha, 0 to 100 scale (0 no effect, 100 complete control)",90%
same,"Plant response rating, Ragweed",[3]; [13],0
same,"Plant response rating, Ragweed",[3]; [14],30
same,Ragweed plant response rating,[3]; [12],0
same,"Plant response rating, Ragweed",[3]; [15],0
same,pest or weed control at 125 g/ha,"[4]; Echinochloa crus-galli, post-emergence, 240 h, 125 g ai/ha, postemergence, 0 to 100 scale, 0 no effect, 100 complete control, read-out: Plant response rating, Barnyardgrass",0%
same,pest or weed control at 500 g/ha,"[4]; Echinochloa crus-galli, post-emergence, 240 h, Postemergence, 500 g ai/ha, 0 to 100 scale (0 no effect, 100 complete control), read-out: Plant response rating, Barnyardgrass",80%
same,pest or weed control at 500 g/ha,"[4]; Echinochloa crus-galli, pre-emergence, 240 h, Preemergence, 500 g ai/ha, 0 to 100 scale where 0 is no effect and 100 is complete control, read-out: Plant response rating, Barnyardgrass",80%
same,Barnyardgrass plant response rating,[4]; [12],0
same,plant injury at 125 g/ha,"[5]; Triticum aestivum, post-emergence, 240 h, 125 g ai/ha, postemergence, 0 to 100 scale, 0 no effect, 100 complete control, read-out: Plant response rating, Wheat",20%
same,plant injury at 500 g/ha,"[5]; Triticum aestivum, post-emergence, 240 h, Postemergence, 500 g ai/ha, 0 to 100 scale (0 no effect, 100 complete control), read-out: Plant response rating, Wheat",80%
same,pest or weed control at 125 g/ha,"[6]; Amaranthus retroflexus, post-emergence, 240 h, 125 g ai/ha, postemergence, 0 to 100 scale, 0 no effect, 100 complete control, read-out: Plant response rating, Pigweed",90%
same,pest or weed control at 500 g/ha,"[6]; Amaranthus retroflexus, post-emergence, 240 h, Postemergence, 500 g ai/ha, 0 to 100 scale (0 no effect, 100 complete control), read-out: Plant response rating, Pigweed",100%
same,pest or weed control at 500 g/ha,"[6]; Amaranthus retroflexus, pre-emergence, 240 h, Preemergence, 500 g ai/ha, 0 to 100 scale where 0 is no effect and 100 is complete control, read-out: Plant response rating, Pigweed",100%
same,Pigweed plant response rating,[6]; [12],90
same,"Plant response rating, Galium",[7]; [13],70
same,"Plant response rating, Galium",[7]; [14],100
same,"Plant response rating, Blackgrass",[8]; [13],50
same,"Plant response rating, Blackgrass",[8]; [14],90
same,plant injury at 250 g/ha,"rice (Oryza sativa); Oryza sativa, read-out: Rice plant response rating",0%
same,pest or weed control at 250 g/ha,"[9]; Heteranthera limosa, read-out: Ducksalad plant response rating",0%
same,pest or weed control at 250 g/ha,"[10]; Echinochloa crus-galli, read-out: Barnyardgrass plant response rating",0%
same,pest or weed control at 250 g/ha,"[11]; Cyperus difformis, read-out: Sedge, Umbrella plant response rating",0%
FC(F)(F)Cn1cnc(-c2ccccc2Oc2ncc(Cl)cn2)c1 [Compound 161],"Plant response rating, Foxtail, Giant",[1]; [13],0
same,"Plant response rating, Foxtail, Giant",[1]; [14],0
same,"Foxtail, Giant plant response rating",[1]; [12],0
same,"Plant response rating, Foxtail, Giant",[1]; [15],0
same,"Plant response rating, Kochia",kochia (Kochia scoparia); [13],0
same,"Plant response rating, Kochia",kochia (Kochia scoparia); [14],0
same,Kochia plant response rating,kochia (Kochia scoparia); [12],0
same,"Plant response rating, Kochia",kochia (Kochia scoparia); [15],0
same,"Plant response rating, Ryegrass, Italian",[2]; [13],0
same,"Plant response rating, Ryegrass, Italian",[2]; [14],0
same,"Ryegrass, Italian plant response rating",[2]; [12],0
same,"Plant response rating, Ryegrass, Italian",[2]; [15],0
same,"Plant response rating, Corn",corn (Zea mays); [13],0
same,"Plant response rating, Corn",corn (Zea mays); [14],0
same,"Plant response rating, Ragweed",[3]; [13],0
same,"Plant response rating, Ragweed",[3]; [14],0
same,Ragweed plant response rating,[3]; [12],0
same,"Plant response rating, Ragweed",[3]; [15],0
same,"Plant response rating, Barnyardgrass",[4]; [13],0
same,"Plant response rating, Barnyardgrass",[4]; [14],0
same,Barnyardgrass plant response rating,[4]; [12],0
same,"Plant response rating, Barnyardgrass",[4]; [15],0
same,"Plant response rating, Wheat",[5]; [13],0
same,"Plant response rating, Wheat",[5]; [14],0
same,"Plant response rating, Pigweed",[6]; [13],0
same,"Plant response rating, Pigweed",[6]; [14],0
same,Pigweed plant response rating,[6]; [12],0
same,"Plant response rating, Pigweed",[6]; [15],0
same,"Plant response rating, Galium",[7]; [13],0
same,"Plant response rating, Galium",[7]; [14],0
same,"Plant response rating, Blackgrass",[8]; [13],0
same,"Plant response rating, Blackgrass",[8]; [14],0
same,Rice plant response rating,rice (Oryza sativa),0
same,Ducksalad plant response rating,[9],0
same,Barnyardgrass plant response rating,[10],0
same,"Sedge, Umbrella plant response rating",[11],0
Clc1cnc(Oc2ccccc2-c2cnccn2)nc1 [Compound 163],"Plant response rating, Foxtail, Giant",[1]; [16],0
same,"Plant response rating, Foxtail, Giant",[1]; [13],10
same,"Plant response rating, Foxtail, Giant",[1]; [17],0
same,"Foxtail, Giant plant response rating",[1]; [12],0
same,"Plant response rating, Kochia",kochia (Kochia scoparia); [16],0
same,"Plant response rating, Kochia",kochia (Kochia scoparia); [13],50
same,"Plant response rating, Kochia",kochia (Kochia scoparia); [17],10
same,Kochia plant response rating,kochia (Kochia scoparia); [12],0
same,"Plant response rating, Ryegrass, Italian",[2]; [16],0
same,"Plant response rating, Ryegrass, Italian",[2]; [13],0
same,"Plant response rating, Ryegrass, Italian",[2]; [17],0
same,"Ryegrass, Italian plant response rating",[2]; [12],0
same,"Plant response rating, Corn",corn (Zea mays); [13],10
same,"Plant response rating, Corn",corn (Zea mays); [17],0
same,"Plant response rating, Ragweed",[3]; [16],0
same,"Plant response rating, Ragweed",[3]; [13],30
same,"Plant response rating, Ragweed",[3]; [17],30
same,Ragweed plant response rating,[3]; [12],40
same,"Plant response rating, Barnyardgrass",[4]; [16],0
same,"Plant response rating, Barnyardgrass",[4]; [13],0
same,"Plant response rating, Barnyardgrass",[4]; [17],0
same,Barnyardgrass plant response rating,[4]; [12],0
same,"Plant response rating, Wheat",[5]; [13],0
same,"Plant response rating, Wheat",[5]; [17],0
same,"Plant response rating, Pigweed",[6]; [16],0
same,"Plant response rating, Pigweed",[6]; [13],30
same,"Plant response rating, Pigweed",[6]; [17],20
same,Pigweed plant response rating,[6]; [12],30
same,"Plant response rating, Galium",[7]; [13],30
same,"Plant response rating, Galium",[7]; [17],20
same,"Plant response rating, Blackgrass",[8]; [13],20
same,"Plant response rating, Blackgrass",[8]; [17],20
same,Rice plant response rating,rice (Oryza sativa),0
same,Ducksalad plant response rating,[9],0
same,Barnyardgrass plant response rating,[10],0
same,"Sedge, Umbrella plant response rating",[11],0
Fc1cnc(Oc2ccccc2-c2cnccn2)nc1 [Compound 164],"Plant response rating, Foxtail, Giant",[1]; [16],0
same,"Plant response rating, Foxtail, Giant",[1]; [13],0
same,"Plant response rating, Foxtail, Giant",[1]; [17],0
same,"Foxtail, Giant plant response rating",[1]; [12],0
same,"Plant response rating, Kochia",kochia (Kochia scoparia); [16],0
same,"Plant response rating, Kochia",kochia (Kochia scoparia); [13],0
same,"Plant response rating, Kochia",kochia (Kochia scoparia); [17],0
same,Kochia plant response rating,kochia (Kochia scoparia); [12],0
same,"Plant response rating, Ryegrass, Italian",[2]; [16],0
same,"Plant response rating, Ryegrass, Italian",[2]; [13],0
same,"Plant response rating, Ryegrass, Italian",[2]; [17],0
same,"Ryegrass, Italian plant response rating",[2]; [12],0
same,"Plant response rating, Corn",corn (Zea mays); [13],0
same,"Plant response rating, Corn",corn (Zea mays); [17],0
same,"Plant response rating, Ragweed",[3]; [16],0
same,"Plant response rating, Ragweed",[3]; [13],30
same,"Plant response rating, Ragweed",[3]; [17],20
same,Ragweed plant response rating,[3]; [12],0
same,"Plant response rating, Barnyardgrass",[4]; [16],0
same,"Plant response rating, Barnyardgrass",[4]; [13],0
same,"Plant response rating, Barnyardgrass",[4]; [17],0
same,Barnyardgrass plant response rating,[4]; [12],0
same,"Plant response rating, Wheat",[5]; [13],0
same,"Plant response rating, Wheat",[5]; [17],0
same,"Plant response rating, Pigweed",[6]; [16],0
same,"Plant response rating, Pigweed",[6]; [13],30
same,"Plant response rating, Pigweed",[6]; [17],0
same,Pigweed plant response rating,[6]; [12],30
same,"Plant response rating, Galium",[7]; [13],30
same,"Plant response rating, Galium",[7]; [17],10
same,"Plant response rating, Blackgrass",[8]; [13],0
same,"Plant response rating, Blackgrass",[8]; [17],0
same,Rice plant response rating,rice (Oryza sativa),0
same,Ducksalad plant response rating,[9],0
same,Barnyardgrass plant response rating,[10],0
same,"Sedge, Umbrella plant response rating",[11],0
